Assays:
[1] = target: AChE (Homo sapiens, UniProt P22303); assay: biochemical; conditions: for inhibition at 1000 µM: 10^–3 M; for inhibition at 100 µM: 10^–4 M; for inhibition at 10 µM: 10^–5 M; for inhibition at 1 µM: 10^–6 M; for inhibition at 0.1 µM: 10^–7 M; for inhibition at 0.01 µM: 10^–8 M; for inhibition at 0.001 µM: 10^–9 M
Method: (§1) According to the modified Ellman approach outlined in our team’s earlier work, the AChE and BChE inhibitory activities of the obtained compounds were evaluated.[18]−[21]

[2] = target: BChE (Homo sapiens, UniProt P06276); assay: biochemical; conditions: for inhibition at 1000 µM: 10^–3 M; for inhibition at 100 µM: 10^–4 M
Chain of BChE (P06276 29-602): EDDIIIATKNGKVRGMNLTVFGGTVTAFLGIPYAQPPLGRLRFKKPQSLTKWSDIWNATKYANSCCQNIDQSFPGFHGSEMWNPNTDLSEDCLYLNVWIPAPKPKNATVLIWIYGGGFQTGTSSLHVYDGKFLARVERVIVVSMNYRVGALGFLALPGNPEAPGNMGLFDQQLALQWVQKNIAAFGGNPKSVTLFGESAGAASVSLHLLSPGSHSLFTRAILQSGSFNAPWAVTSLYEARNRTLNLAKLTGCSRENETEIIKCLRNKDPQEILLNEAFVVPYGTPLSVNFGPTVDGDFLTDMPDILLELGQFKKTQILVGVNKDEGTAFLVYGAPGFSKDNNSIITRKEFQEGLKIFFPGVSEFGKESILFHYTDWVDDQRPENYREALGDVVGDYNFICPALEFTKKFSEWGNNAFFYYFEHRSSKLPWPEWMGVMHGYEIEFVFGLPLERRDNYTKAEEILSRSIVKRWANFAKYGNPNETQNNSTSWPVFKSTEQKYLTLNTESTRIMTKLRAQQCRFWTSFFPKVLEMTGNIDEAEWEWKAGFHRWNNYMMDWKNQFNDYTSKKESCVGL
Method: as §1

[3] = target: T1, MAO-A (Homo sapiens, UniProt P21397); assay: In vitro MAO-A inhibition assay (fluorometric); type: biochemical; conditions: for inhibition at 1000 µM: 10^–3 M; for inhibition at 100 µM: 10^–4 M
T1 sequence (P21397 1-527): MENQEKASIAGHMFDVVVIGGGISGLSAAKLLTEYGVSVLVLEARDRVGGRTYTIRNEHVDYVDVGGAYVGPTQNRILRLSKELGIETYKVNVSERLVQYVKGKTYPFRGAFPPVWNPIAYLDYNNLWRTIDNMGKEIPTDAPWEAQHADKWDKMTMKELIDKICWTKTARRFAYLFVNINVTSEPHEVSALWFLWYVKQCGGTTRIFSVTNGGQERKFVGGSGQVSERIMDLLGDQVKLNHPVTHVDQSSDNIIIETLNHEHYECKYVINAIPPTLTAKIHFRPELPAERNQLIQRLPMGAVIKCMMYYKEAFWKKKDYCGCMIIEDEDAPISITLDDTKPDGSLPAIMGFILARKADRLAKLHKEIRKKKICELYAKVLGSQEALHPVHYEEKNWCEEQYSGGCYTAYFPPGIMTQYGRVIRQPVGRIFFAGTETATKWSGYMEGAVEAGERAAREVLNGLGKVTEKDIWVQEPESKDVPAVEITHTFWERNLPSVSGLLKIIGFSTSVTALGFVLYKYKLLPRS

[4] = target: T2, MAO-B (Homo sapiens, UniProt P27338); assay: In vitro MAO-B inhibition assay (fluorometric); type: biochemical; conditions: for inhibition at 1000 µM: 10^–3 M; for inhibition at 100 µM: 10^–4 M; for inhibition at 10 µM: 10^–5 M; for inhibition at 1 µM: 10^–6 M; for inhibition at 0.1 µM: 10^–7 M; for inhibition at 0.01 µM: 10^–8 M; for inhibition at 0.001 µM: 10^–9 M
T2 sequence (P27338 1-520): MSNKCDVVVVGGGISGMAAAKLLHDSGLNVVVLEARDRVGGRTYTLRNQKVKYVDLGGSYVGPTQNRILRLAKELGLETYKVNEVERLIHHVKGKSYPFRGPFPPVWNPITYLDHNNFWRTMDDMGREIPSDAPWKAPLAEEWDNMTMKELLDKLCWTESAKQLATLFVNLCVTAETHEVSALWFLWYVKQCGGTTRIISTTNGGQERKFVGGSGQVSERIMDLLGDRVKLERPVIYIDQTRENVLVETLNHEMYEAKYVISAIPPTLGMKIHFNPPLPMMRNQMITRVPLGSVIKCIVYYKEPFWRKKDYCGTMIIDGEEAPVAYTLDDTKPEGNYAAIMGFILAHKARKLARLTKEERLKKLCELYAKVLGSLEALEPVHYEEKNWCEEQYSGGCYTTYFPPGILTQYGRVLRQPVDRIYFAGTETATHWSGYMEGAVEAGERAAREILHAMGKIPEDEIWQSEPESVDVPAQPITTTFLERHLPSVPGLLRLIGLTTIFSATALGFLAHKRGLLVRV

[5] = Cytotoxicity test (MTT); type: cell-based; conditions: NIH/3T3 mouse embryonic fibroblast cells (ATCC CRL-1658), NIH/3T3 mouse fibroblast healthy cell line
Method: The NIH/3T3 cells were incubated according to the manufacturer’s recommendations. In 96-well plates, NIH/3T3 cells were seeded at a density of 1 × 10^4 cells per well. The MTT test was conducted in line with the previously mentioned standards.[19],[22],[23],[28],[30]

[6] = target: T3, Beta Amyloid 1–42 (Aβ42) (Homo sapiens, UniProt P05067); assay: Beta Amyloid 1–42 (Aβ42) inhibitor screening assay; type: biochemical; conditions: read-out: % β-amyloid plaque inhibition; for inhibition at 100 µM: 10^–4 M
T3 construct: The Beta Amyloid 1–42 (Aβ42) Ligand Screening Assay kit; purchased BioVision, Milpitas, CA
T3 sequence (P05067 672-713 limits assumed): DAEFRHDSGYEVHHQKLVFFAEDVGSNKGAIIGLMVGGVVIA
Text: The Beta Amyloid 1–42 (Aβ42) Ligand Screening Assay kit (BioVision, Milpitas, CA) technique based on the fluorometric approach served as the basis for the experimental process.[21],[28],[29]

Chain of AChE (P22303 32-614): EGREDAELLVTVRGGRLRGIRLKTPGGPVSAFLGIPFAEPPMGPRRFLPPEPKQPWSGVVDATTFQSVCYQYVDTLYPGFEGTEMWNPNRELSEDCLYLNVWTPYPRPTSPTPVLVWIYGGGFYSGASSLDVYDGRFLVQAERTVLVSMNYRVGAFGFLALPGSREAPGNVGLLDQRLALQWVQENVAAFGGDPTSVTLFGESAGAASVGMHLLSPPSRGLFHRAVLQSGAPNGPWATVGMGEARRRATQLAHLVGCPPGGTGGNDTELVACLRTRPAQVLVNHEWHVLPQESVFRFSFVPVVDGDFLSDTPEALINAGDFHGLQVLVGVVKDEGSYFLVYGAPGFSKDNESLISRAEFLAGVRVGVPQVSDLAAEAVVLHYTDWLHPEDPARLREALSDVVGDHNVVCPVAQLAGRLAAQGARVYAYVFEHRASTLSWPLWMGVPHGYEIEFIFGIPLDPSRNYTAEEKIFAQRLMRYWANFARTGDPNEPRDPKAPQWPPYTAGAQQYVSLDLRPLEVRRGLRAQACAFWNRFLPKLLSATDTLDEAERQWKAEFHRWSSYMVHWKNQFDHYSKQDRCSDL

Compound | IC50 [1] | inhibition at 1000 µM [1] | inhibition at 100 µM [1] | inhibition at 10 µM [1] | inhibition at 1 µM [1] | inhibition at 0.1 µM [1] | inhibition at 0.01 µM [1] | inhibition at 0.001 µM [1] | inhibition at 1000 µM [2] | inhibition at 100 µM [2] | inhibition at 1000 µM [3] | inhibition at 100 µM [3] | inhibition at 1000 µM [4] | inhibition at 100 µM [4] | IC50 [5] | IC50 [4] | inhibition at 10 µM [4] | inhibition at 1 µM [4] | inhibition at 0.1 µM [4] | inhibition at 0.01 µM [4] | other results
COc1ccc2c(c1)C/C(=C\c1ccc(NC(=O)CN3CCN(CCCN(C)C)CC3)cc1)C2=O [D25] | 183 ± 7.4 nM | 92.6 ± 1.62% | 88.7 ± 1.19% | 71.1 ± 1.01% | 58.9 ± 0.952% | 43.2 ± 0.548% | 35.3 ± 0.417% | 23.4 ± 0.389% | 95.7 ± 2.13% | 32 ± 0.667% | 80.38 ± 0.646% | 43.1 ± 0.646% | 79 ± 1.31% | 40.1 ± 0.63% | 13800 ± 369 nM | – | – | – | – | – | –
COc1ccc2c(c1)C(=O)/C(=C/c1ccc(NC(=O)CN3CCN(CCCO)CC3)cc1)C2 [D20] | 31.1 ± 1.1 nM | 98.3 ± 1.11% | 91.1 ± 1.36% | 86.3 ± 1.25% | 77.2 ± 0.975% | 68.26 ± 0.633% | 40.2 ± 0.528% | 21.1 ± 0.429% | 82.6 ± 1.05% | 20.1 ± 0.277% | 81.86 ± 0.243% | 43.29 ± 0.429% | 83.6 ± 1.04% | 41.6 ± 0.508% | 20000 ± 1000 nM | – | – | – | – | – | inhibition at 100 µM [6]: > 50%
CCN(CC)CCN(CC)CC(=O)Nc1ccc(/C=C2\Cc3cc(OC)ccc3C2=O)cc1 [D40] | – | 81.3 ± 1.11% | 41.6 ± 0.995% | – | – | – | – | – | 95.1 ± 1.24% | 44.3 ± 0.642% | 84.3 ± 1.27% | 41.3 ± 0.577% | – | 88.8 ± 1.3% | 6870 ± 297 nM | 203 ± 9.8 nM | 80.6 ± 1.48% | 65.2 ± 0.975% | 43.1 ± 0.662% | 25.7 ± 0.425% | inhibition at 0.001 µM [4]: 19.9 ± 0.365%
COc1ccc2c(c1)C(=O)/C(=C/c1ccc(NC(=O)CN3CCN(CCN(C)C)CC3)cc1)C2 [D23] | 51 ± 1.4 nM | 92.5 ± 1.57% | 87.6 ± 1.68% | 82.4 ± 1.21% | 70.1 ± 1.06% | 68.9 ± 0.945% | 35.5 ± 0.518% | 20.6 ± 0.418% | 99 ± 1.68% | 41.5 ± 0.741% | 78.2 ± 0.969% | 22.9 ± 0.497% | 81.3 ± 1.05% | 43.2 ± 0.884% | 2150 ± 127 nM | – | – | – | – | – | inhibition at 100 µM [6]: > 50%
C#CCN(C)CC(=O)Nc1ccc(/C=C2\Cc3cc(OC)ccc3C2=O)cc1 [D31] | – | 41.3 ± 0.966% | 27.1 ± 0.803% | – | – | – | – | – | 98.8 ± 2.69% | 41.6 ± 0.988% | 92.7 ± 1.31% | 23.9 ± 0.572% | 93.6 ± 1.48% | 88.7 ± 1.36% | 26000 ± 1280 nM | 61.9 ± 2.8 nM | 81.5 ± 1.24% | 75.9 ± 1.06% | 61.9 ± 1.01% | 35.5 ± 0.485% | inhibition at 0.001 µM [4]: 18.8 ± 0.511%
COc1cc(/C=C/C(=O)CC(=O)/C=C/c2ccc(O)c(OC)c2)ccc1O [curcumin, reference compound] | – | – | – | – | – | – | – | – | – | – | – | – | – | – | – | – | – | – | – | – | inhibition at 1000 µM ([6]; 10^–3 M): 95.9 ± 1.97%; inhibition at 100 µM [6]: 88.2 ± 2.17%
C#CCN(C)CC(=O)Nc1ccc(/C=C2\Cc3ccc(OC)cc3C2=O)cc1 [D32] | – | 33.8 ± 0.885% | 26.4 ± 0.565% | – | – | – | – | – | 90.9 ± 1.29% | 24.7 ± 0.455% | 76.7 ± 1.67% | 29.7 ± 0.752% | 94.8 ± 1.42% | 89.6 ± 1.27% | 282000 ± 7040 nM | 66.5 ± 2.4 nM | 81.5 ± 1.8% | 72.7 ± 1.32% | 59.6 ± 0.977% | 34.2 ± 0.514% | inhibition at 0.001 µM [4]: 21.5 ± 0.429%
COc1ccc2c(c1)C(=O)/C(=C/c1ccc(NC(=O)CN3CCN(CCCN(C)C)CC3)cc1)C2 [D26] | 176 ± 6.2 nM | 93.3 ± 1.5% | 80.5 ± 1.21% | 78.1 ± 1.02% | 60.6 ± 0.974% | 40.3 ± 0.598% | 35.6 ± 0.758% | 24.5 ± 0.622% | 56.2 ± 0.826% | 31.1 ± 0.415% | 95.12 ± 0.828% | 44.3 ± 0.914% | 94.3 ± 0.997% | 41.3 ± 0.874% | 21800 ± 556 nM | – | – | – | – | – | –
C#CCN(C)CC(=O)Nc1ccc(/C=C2\Cc3cc(OC)c(OC)cc3C2=O)cc1 [D33] | – | 52.4 ± 1.24% | 32 ± 0.462% | – | – | – | – | – | 99 ± 1.75% | 46.6 ± 0.845% | 84.3 ± 1.29% | 29.9 ± 0.552% | 82.1 ± 1.19% | 39.3 ± 0.665% | – | – | – | – | – | – | –
CCN(CC)CCN(CC)CC(=O)Nc1ccc(/C=C2\Cc3ccc(OC)cc3C2=O)cc1 [D41] | – | 81 ± 1.6% | 36.6 ± 0.399% | – | – | – | – | – | 99.15 ± 0.704% | 46.3 ± 1.37% | 82.8 ± 2.12% | 22.5 ± 0.622% | 90.2 ± 1.36% | 81.8 ± 1.29% | 5890 ± 119 nM | 209 ± 9.5 nM | 73.3 ± 1.42% | 65.4 ± 0.975% | 42.2 ± 0.563% | 32.7 ± 0.427% | inhibition at 0.001 µM [4]: 21.5 ± 0.385%
C#CCN1CCN(CC(=O)Nc2ccc(/C=C3\Cc4cc(OC)ccc4C3=O)cc2)CC1 [D10] | – | 71.3 ± 1.01% | 29.4 ± 0.587% | – | – | – | – | – | 41.3 ± 0.755% | 26.6 ± 1.35% | 48.9 ± 0.966% | 22.4 ± 0.662% | 68.96 ± 0.578% | 42.6 ± 0.652% | – | – | – | – | – | – | –

Reference: article PMC9774391 (ACS Omega, 2022)
